# Source: ChEMBL document CHEMBL4346657, “Anticancer activity, dual prooxidant/antioxidant effect and apoptosis induction profile of new bichalcophene-5-carboxamidines” (Eur J Med Chem, 2019)
# Calls of active or inactive are those of the source. The calls are words filed in the database; no cut-off is given here.
# Assays:
# HCT-116 [1] = test: Antiproliferative activity against human HCT116 cells assessed as growth inhibition after 48 hrs by sulforhodamine B assay; assay type: functional; conditions: HCT-116, 48 h
# NCI-H322M = test: Antiproliferative activity against human NCI-H322M cells assessed as growth inhibition after 48 hrs by sulforhodamine B assay; assay type: functional
# MCF7 = test: Antiproliferative activity against human MCF7 cells assessed as growth inhibition after 48 hrs by sulforhodamine B assay; assay type: functional; conditions: MCF7, 48 h
# Erythrocyte [2] = test: Haemolytic activity in human erythrocytes assessed as induction of hemolysis at 0.625 mM after 30 mins relative to H202; assay type: cell-based; conditions: erythrocyte, 0.5 h, 625 µM
# [3] = Haemolytic activity in human erythrocytes assessed as induction of hemolysis at 10 mM after 30 mins relative to H202; assay type: cell-based, Erythrocyte; conditions: read-out: Activity
# HCT-116 [4] = test: […] in CDK1 mRNA expression in human HCT116 cells at 100 nM after 6 hrs hrs by SYBR green dye-based qRT-PCR analysis relative to control; assay type: functional
# [5] = Antioxidant activity assessed as DPPH radical scavenging activity incubated in dark for 30 mins by spectrophotometric method relative to control; assay type: functional; set-up: concentration or dose not given beside the values
# HCC 2998 = test: Antiproliferative activity against human HCC2998 cells assessed as growth inhibition after 48 hrs by sulforhodamine B assay; assay type: functional; conditions: HCC 2998, 48 h
# SF-539 = test: Antiproliferative activity against human SF539 cells assessed as growth inhibition after 48 hrs by sulforhodamine B assay; assay type: functional; conditions: SF-539, 48 h
# MOLT-4 = test: Antiproliferative activity against human MOLT4 cells assessed as growth inhibition after 48 hrs by sulforhodamine B assay; assay type: functional; conditions: MOLT-4, 48 h
# [6] = system: Panel NCI-60 (60 carcinoma cell lines); test: Antiproliferative activity against human NCI60 cells assessed as growth inhibition at 10 uM after 48 hrs by sulforhodamine B assay; assay type: functional; conditions: read-out: GI
# SK-MEL-28 = test: Antiproliferative activity against human SK-MEL-28 cells assessed as growth inhibition after 48 hrs by sulforhodamine B assay; assay type: functional; conditions: SK-MEL-28, 48 h
# NCI-H226 = test: Antiproliferative activity against human NCI-H226 cells assessed as growth inhibition after 48 hrs by sulforhodamine B assay; assay type: functional; conditions: NCI-H226, 48 h
# UACC-257 = test: Antiproliferative activity against human UACC257 cells assessed as growth inhibition after 48 hrs by sulforhodamine B assay; assay type: functional; conditions: UACC-257, 48 h
# SK-MEL-2 = test: Antiproliferative activity against human SK-MEL-2 cells assessed as growth inhibition after 48 hrs by sulforhodamine B assay; assay type: functional; conditions: SK-MEL-2, 48 h
# SNB-19 = test: Antiproliferative activity against human SNB19 cells assessed as growth inhibition after 48 hrs by sulforhodamine B assay; assay type: functional; conditions: SNB-19, 48 h
# 786-0 = test: Antiproliferative activity against human 786-0 cells assessed as growth inhibition after 48 hrs by sulforhodamine B assay; assay type: functional; conditions: 786-0, 48 h
# [7] = Haemolytic activity in human erythrocytes assessed as induction of hemolysis at 5 mM after 30 mins relative to H202; assay type: cell-based, Erythrocyte; conditions: read-out: Activity
# TK-10 = test: Antiproliferative activity against human TK10 cells assessed as growth inhibition after 48 hrs by sulforhodamine B assay; assay type: functional; conditions: TK-10, 48 h
# MDA-MB-468 = test: Antiproliferative activity against human MDA-MB-468 cells assessed as growth inhibition after 48 hrs by sulforhodamine B assay; assay type: functional; conditions: MDA-MB-468, 48 h
# [8] = Pro-oxidant activity assessed as increase in bleomycin-Fe2+ induced calf thymus DNA damage at 2 mM after 1 hr by thiobarbituric acid based absorbance analysis
# CCRF-CEM = test: Antiproliferative activity against human CCRF-CEM cells assessed as growth inhibition after 48 hrs by sulforhodamine B assay; assay type: functional
# K562 = test: Antiproliferative activity against human K562 cells assessed as growth inhibition after 48 hrs by sulforhodamine B assay; assay type: functional, cell-based; conditions: K562, 48 h
# COLO 205 = test: Antiproliferative activity against human COLO205 cells assessed as growth inhibition after 48 hrs by sulforhodamine B assay; assay type: functional; conditions: COLO 205, 48 h
# WI-38 = test: Cytotoxicity activity against human WI38 cells assessed as reduction in cell viability measured after 48 hrs by MTT assay; assay type: cell-based; conditions: WI-38, 48 h
# NCI-H522 = test: Antiproliferative activity against human NCI-H522 cells assessed as growth inhibition after 48 hrs by sulforhodamine B assay; assay type: functional; conditions: NCI-H522, 48 h
# SNB-75 = test: Antiproliferative activity against human SNB75 cells assessed as growth inhibition after 48 hrs by sulforhodamine B assay; assay type: functional; conditions: SNB-75, 48 h
# [9] = Antioxidant activity assessed as ABTS radical scavenging activity by spectrophotometric method relative to ascorbic acid; assay type: functional
# A549 = test: Antiproliferative activity against human A549/ATCC cells assessed as growth inhibition after 48 hrs by sulforhodamine B assay; assay type: functional; conditions: A549, 48 h
# SK-MEL-5 = test: Antiproliferative activity against human SK-MEL-5 cells assessed as growth inhibition after 48 hrs by sulforhodamine B assay; assay type: functional; conditions: SK-MEL-5, 48 h
# RPMI-8226 = test: Antiproliferative activity against human RPMI8226 cells assessed as growth inhibition after 48 hrs by sulforhodamine B assay; assay type: functional; conditions: RPMI-8226, 48 h
# IGROV-1 = test: Antiproliferative activity against human IGROV1 cells assessed as growth inhibition after 48 hrs by sulforhodamine B assay; assay type: functional; conditions: IGROV-1, 48 h
# BT-549 = test: Antiproliferative activity against human BT549 cells assessed as growth inhibition after 48 hrs by sulforhodamine B assay; assay type: functional; conditions: BT-549, 48 h
# MDA-MB-231 = test: Antiproliferative activity against human MDA-MB-231/ATCC cells assessed as growth inhibition after 48 hrs by sulforhodamine B assay; assay type: functional; conditions: MDA-MB-231, 48 h
# NCI/ADR-RES = test: Antiproliferative activity against human NCI-ADR-RES cells assessed as growth inhibition after 48 hrs by sulforhodamine B assay; assay type: functional
# Erythrocyte [10] = test: Haemolytic activity in human erythrocytes assessed as induction of hemolysis at 1.25 mM after 30 mins relative to H202; assay type: cell-based; conditions: erythrocyte, 0.5 h, 1250 µM
# Hs-578T = test: Antiproliferative activity against human Hs578T cells assessed as growth inhibition after 48 hrs by sulforhodamine B assay; assay type: functional
# U-251 = test: Antiproliferative activity against human U251 cells assessed as growth inhibition after 48 hrs by sulforhodamine B assay; assay type: functional; conditions: U-251, 48 h
# MDA-MB-435 = test: Antiproliferative activity against human MDA-MB-435 cells assessed as growth inhibition after 48 hrs by sulforhodamine B assay; assay type: functional; conditions: MDA-MB-435, 48 h
# Malme-3M = test: Antiproliferative activity against human MALME-3M cells assessed as growth inhibition after 48 hrs by sulforhodamine B assay; assay type: functional
# OVCAR-4 = test: Antiproliferative activity against human OVCAR4 cells assessed as growth inhibition after 48 hrs by sulforhodamine B assay; assay type: functional; conditions: OVCAR-4, 48 h
# SW-620 = test: Antiproliferative activity against human SW620 cells assessed as growth inhibition after 48 hrs by sulforhodamine B assay; assay type: functional; conditions: SW-620, 48 h
smiles,measurement,setting,value
N=C(N)c1ccc(-c2ccc(-c3cncc4ccccc34)s2)s1,GI50,HCT-116 [1],1.61 µM
same,GI50,NCI-H322M,1.66 µM
same,GI50,MCF7,0.28 µM
same,Activity,Erythrocyte [2],Non-Toxic
same,"hemolysis at 0.5 h, 10000 µM",[3],12.3%
same,fold change (FC),HCT-116 [4],0.16
same,inhibition,[5],52.5%
same,GI50,HCC 2998,1.53 µM
same,GI50,SF-539,1.73 µM
same,GI50,MOLT-4,1.17 µM
same,inhibition of growth at 10 µM,[6],-59.2%
same,GI50,SK-MEL-28,1.64 µM
same,GI50,NCI-H226,1.91 µM
same,GI50,UACC-257,2.47 µM
same,GI50,SK-MEL-2,2 µM
same,GI50,SNB-19,2.17 µM
same,GI50,786-0,1.59 µM
same,"hemolysis at 0.5 h, 5000 µM",[7],4%
same,GI50,TK-10,1.84 µM
same,GI50,MDA-MB-468,1.27 µM
same,Activity,[8],Active
same,GI50,CCRF-CEM,0.36 µM
same,IC50,K562; read-out: IC50,0.24 µM
same,IC50,K562; read-out: pIC50 (converted),38000 µM
same,GI50,COLO 205,0.75 µM
same,IC50,WI-38,> 100 µM
same,GI50,NCI-H522,1.65 µM
same,GI50,SNB-75,1.93 µM
same,fold change (FC),[9],0.8
same,GI50,A549,1.62 µM
same,GI50,SK-MEL-5,1.74 µM
same,GI50,RPMI-8226,1.78 µM
same,GI50,IGROV-1,1.91 µM
same,GI50,BT-549,1.51 µM
same,GI50,MDA-MB-231,1.35 µM
same,GI50,NCI/ADR-RES,1.68 µM
same,Activity,Erythrocyte [10],Non-Toxic
same,GI50,Hs-578T,2.22 µM
same,GI50,U-251,1.72 µM
same,GI50,MDA-MB-435,2.03 µM
same,GI50,Malme-3M,1.61 µM
same,GI50,OVCAR-4,0.3 µM
same,GI50,SW-620,1.08 µM
N=C(N)c1ccc(-c2ccc(-c3ccccc3)o2)o1,GI50,HCT-116 [1],2.07 µM
same,GI50,NCI-H322M,2.12 µM
same,GI50,MCF7,1.68 µM
same,Activity,Erythrocyte [2],Non-Toxic
same,"hemolysis at 0.5 h, 10000 µM",[3],66.7%
same,fold change (FC),HCT-116 [4],0.97
same,inhibition,[5],30.9%
same,GI50,HCC 2998,1.61 µM
same,GI50,SF-539,1.95 µM
same,GI50,MOLT-4,3.31 µM
same,inhibition of growth at 10 µM,[6],68.2%
same,GI50,SK-MEL-28,1.9 µM
same,GI50,NCI-H226,5.7 µM
same,GI50,UACC-257,2.52 µM
same,GI50,SK-MEL-2,2.25 µM
same,GI50,SNB-19,3.01 µM
same,GI50,786-0,1.74 µM
same,"hemolysis at 0.5 h, 5000 µM",[7],30.1%
same,GI50,TK-10,3.32 µM
same,GI50,MDA-MB-468,1.64 µM
same,Activity,[8],Active
same,GI50,CCRF-CEM,3.58 µM
same,IC50,K562; read-out: IC50,0.66 µM
same,GI50,COLO 205,1.78 µM
same,IC50,WI-38,68.7 µM
same,GI50,NCI-H522,1.94 µM
same,GI50,SNB-75,1.6 µM
same,fold change (FC),[9],0.4
same,GI50,A549,3.55 µM
same,GI50,SK-MEL-5,1.75 µM
same,GI50,RPMI-8226,2.89 µM
same,GI50,IGROV-1,2.89 µM
same,GI50,BT-549,4.13 µM
same,GI50,MDA-MB-231,2.04 µM
same,GI50,NCI/ADR-RES,2.82 µM
same,Activity,Erythrocyte [10],Non-Toxic
same,GI50,Hs-578T,3.81 µM
same,GI50,U-251,2.22 µM
same,GI50,MDA-MB-435,0.99 µM
same,GI50,Malme-3M,1.75 µM
same,GI50,OVCAR-4,3.48 µM
same,GI50,SW-620,1.79 µM
N=C(N)c1ccc(-c2ccc(-c3ccc(Cl)cc3)s2)s1,GI50,HCT-116 [1],1.74 µM
same,GI50,NCI-H322M,1.63 µM
same,GI50,MCF7,1.29 µM
same,Activity,Erythrocyte [2],Non-Toxic
same,"hemolysis at 0.5 h, 10000 µM",[3],81.7%
same,fold change (FC),HCT-116 [4],1.08
same,inhibition,[5],72.9%
same,GI50,HCC 2998,1.57 µM
same,GI50,SF-539,1.63 µM
same,GI50,MOLT-4,1.78 µM
same,inhibition of growth at 10 µM,[6],-57.2%
same,GI50,SK-MEL-28,1.68 µM
same,GI50,NCI-H226,2.19 µM
same,GI50,UACC-257,2.78 µM
same,GI50,SK-MEL-2,2.38 µM
same,GI50,SNB-19,1.92 µM
same,GI50,786-0,1.79 µM
same,"hemolysis at 0.5 h, 5000 µM",[7],49%
same,GI50,TK-10,1.96 µM
same,GI50,MDA-MB-468,1.98 µM
same,Activity,[8],Active
same,GI50,CCRF-CEM,1.84 µM
same,IC50,K562; read-out: IC50,0.67 µM
same,GI50,COLO 205,1.44 µM
same,IC50,WI-38,69.2 µM
same,GI50,NCI-H522,1.83 µM
same,GI50,SNB-75,1.49 µM
same,fold change (FC),[9],0.9
same,GI50,A549,2.11 µM
same,GI50,SK-MEL-5,3.16 µM
same,GI50,RPMI-8226,2.04 µM
same,GI50,IGROV-1,1.83 µM
same,GI50,BT-549,2.11 µM
same,GI50,MDA-MB-231,1.8 µM
same,GI50,NCI/ADR-RES,1.85 µM
same,Activity,Erythrocyte [10],Non-Toxic
same,GI50,Hs-578T,2.14 µM
same,GI50,U-251,1.83 µM
same,GI50,MDA-MB-435,1.64 µM
same,GI50,Malme-3M,1.81 µM
same,GI50,OVCAR-4,1.67 µM
same,GI50,SW-620,1.74 µM
